Key:
Assay in all cases: relative viability (nuclei count vs DMSO), 5 days (fraction); higher = more cells survive
Wnt-C59 + Bortezomib = compound: CC1=NC=CC(=C1)C2=CC=C(C=C2)CC(=O)NC3=CC=C(C=C3)C4=CN=CC=C4 [Wnt-C59] + CC(C)C[C@H](NC(=O)[C@H](Cc1ccccc1)NC(=O)c1cnccn1)B(O)O [Bortezomib] (partner 0.002 µM)
Method in brief: (§1)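 Five library-drug doses in √10 steps were combined with a fixed anchor-drug dose, or a single drug was given alone, by pin tool to lung cancer cell lines in 1536-well plates the day after seeding. Nuclei were stained and counted after 5 days. Relative viability is the nuclei count in treated wells over that in vehicle wells, taken as the median of duplicate plates.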

Wnt-C59 + Tozasertib = compound: CC1=NC=CC(=C1)C2=CC=C(C=C2)CC(=O)NC3=CC=C(C=C3)C4=CN=CC=C4 [Wnt-C59] + Cc1cc(Nc2cc(N3CCN(C)CC3)nc(Sc3ccc(NC(=O)C4CC4)cc3)n2)n[nH]1 [Tozasertib] (partner 0.1 µM)
Method in brief: as §1

Lapatinib + Luminespib = compound: CS(=O)(=O)CCNCc1ccc(-c2ccc3ncnc(Nc4ccc(OCc5cccc(F)c5)c(Cl)c4)c3c2)o1 [Lapatinib] + CCNC(=O)c1noc(-c2cc(C(C)C)c(O)cc2O)c1-c1ccc(CN2CCOCC2)cc1 [Luminespib] (partner 0.01 µM)
Method in brief: as §1

Lapatinib + Olaparib = compound: CS(=O)(=O)CCNCc1ccc(-c2ccc3ncnc(Nc4ccc(OCc5cccc(F)c5)c(Cl)c4)c3c2)o1 [Lapatinib] + O=C(c1cc(Cc2n[nH]c(=O)c3ccccc23)ccc1F)N1CCN(C(=O)C2CC2)CC1 [Olaparib] (partner 8 µM)
Method in brief: as §1

UMC-11
relative viability (Wnt-C59 + Bortezomib; first compound 0.001 µM): 0.715
relative viability (Wnt-C59 + Bortezomib; first compound 0.01 µM): 0.616
relative viability (Wnt-C59 + Bortezomib; first compound 0.03162 µM): 0.75
relative viability (Wnt-C59 + Bortezomib; first compound 0.1 µM): 0.728
relative viability (Wnt-C59 + Tozasertib; first compound 0.001 µM): 0.214
relative viability (Wnt-C59 + Tozasertib; first compound 0.01 µM): 0.197
relative viability (Wnt-C59 + Tozasertib; first compound 0.03162 µM): 0.203
relative viability (Wnt-C59 + Tozasertib; first compound 0.1 µM): 0.226
relative viability (Lapatinib + Luminespib; first compound 0.02 µM): 0.887
relative viability (Lapatinib + Luminespib; first compound 0.06325 µM): 0.957
relative viability (Lapatinib + Luminespib; first compound 0.2 µM): 0.976
relative viability (Lapatinib + Luminespib; first compound 0.6325 µM): 0.901
relative viability (Lapatinib + Luminespib; first compound 2 µM): 1.02
relative viability (Lapatinib + Olaparib; first compound 0.02 µM): 0.299
relative viability (Lapatinib + Olaparib; first compound 0.06325 µM): 0.342
relative viability (Lapatinib + Olaparib; first compound 0.2 µM): 0.347
relative viability (Lapatinib + Olaparib; first compound 0.6325 µM): 0.376
relative viability (Lapatinib + Olaparib; first compound 2 µM): 0.327
